Here are results for one compound from patent US20060223743A1, “Metabolites of cyclosporin analogs” (priority 2004, published 2006).

In this test the test system is calcineurin. Kind of test: Calcineurin activity assay in whole blood lysates (dephosphorylation of 32P-labelled 19 amino acid peptide substrate). The class given is biochemical. As to conditions: in the presence of okadaic acid. The procedure: Calcineurin activity was assayed using a modification of the method previously described by Fruman et al. (A Proc Natl Acad Sci USA, 1992) and in U.S. Pat. No. 6,605,593. Whole blood lysates are evaluated for their ability to dephosphorylate a ^32P-labelled 19 amino acid peptide substrate in the presence of okadaic acid, a phosphatase-type 1 and 2 inhibitor. Background phosphatase 2C activity (CsA and okadaic acid resistant activity) is determined and subtracted from each sample, with the assay performed in the presence and absence of excess added ISA247. The remaining phosphatase activity is taken as calcineurin activity.

In the case of `C=C/C=C/C[C@@H](C)[C@@H](O)[C@H]1C(=O)N[C@@H](CC)C(=O)N(C)CC(=O)N(C)[C@@H](CC(C)C)C(=O)N[C@@H](C(C)C)C(=O)N(C)[C@@H](CC(C)C)C(=O)N[C@@H](C)C(=O)N[C@H](C)C(=O)N(C)[C@@H](CC(C)C)C(=O)N(C)[C@@H](CC(C)C)C(=O)N(C)[C@@H](C(C)C)C(=O)N1C` [Trans ISA247], for the setting “calcineurin inhibition”, the “Metabolite EC50” value came to 0.208 µg/mL. Besides, the “Metabolite Emax” value (percent calcineurin inhibition) is 107%.
